The experiment has as its target T1, SHP2 (Homo sapiens, UniProt Q06124).
T1 sequence (Q06124 1-593): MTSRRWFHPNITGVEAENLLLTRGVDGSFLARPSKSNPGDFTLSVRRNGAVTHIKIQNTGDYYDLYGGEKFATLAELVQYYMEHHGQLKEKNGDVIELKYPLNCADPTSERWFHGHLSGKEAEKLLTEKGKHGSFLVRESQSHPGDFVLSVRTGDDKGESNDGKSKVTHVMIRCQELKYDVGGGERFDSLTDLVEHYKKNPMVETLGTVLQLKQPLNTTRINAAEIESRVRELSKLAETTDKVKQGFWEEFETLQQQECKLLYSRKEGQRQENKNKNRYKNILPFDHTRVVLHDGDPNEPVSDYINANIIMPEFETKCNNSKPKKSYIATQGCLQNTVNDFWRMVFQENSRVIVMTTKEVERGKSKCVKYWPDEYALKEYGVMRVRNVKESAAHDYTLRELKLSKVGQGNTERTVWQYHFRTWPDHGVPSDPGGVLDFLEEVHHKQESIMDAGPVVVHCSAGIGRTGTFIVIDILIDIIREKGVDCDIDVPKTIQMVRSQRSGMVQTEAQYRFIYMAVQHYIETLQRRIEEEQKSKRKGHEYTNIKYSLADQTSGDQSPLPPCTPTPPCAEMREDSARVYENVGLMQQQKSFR
Kind of experiment: biochemical. The conditions noted are these: read-out: SHP2 inhibition (%)@0.1 μM.
By inhibition is commonly meant the change of the read-out against control, counted positive when it falls. As for `Nc1nc(N2CCC3(CC2)Cc2ccc(F)c(F)c2[C@H]3N)cnc1Sc1ccnc(N)c1Cl` [Example 40, (S)-1′-(6-amino-5-((2-amino-3-chloropyridin-4-yl)thio)pyrazin-2-yl)-6,7-difluoro-1,3-dihydro-spiro[indene-2,4′-piperidin]-1-amine], the inhibition at 0.1 µM was 74%.
`Nc1cccc(Sc2cnc(N3CCC4(CC3)Cc3ncccc3[C@H]4N)cn2)c1Cl` [Example 97, (S)-1′-(5-((3-amino-2-chlorophenyl)thio)pyrazin-2-yl)-5,7-dihydro-spiro[cyclopenta [b]pyridine-6,4′-piperidin]-5-amine]: the inhibition at 0.1 µM is 86%.
The same measure for `N=C1c2csc(Br)c2CC12CCN(c1cnc(Sc3ccnc(N)c3Cl)c(N)n1)CC2` [Example 145, 3-((2-amino-3-chloropyridin-4-yl)thio)-6-(1-bromo-4-imino-4H,6H-spiro [cyclopenta[c]thiophene-5,4′-piperidin]-1′-yl)pyrazin-2-amine]: 79%; for `Nc1cccc(Sc2ncc(N3CCC4(CC3)Cc3ncccc3C4N)nc2N)c1Cl` (stereo not drawn) [Example 126, 1′-(6-amino-5-((3-amino-2-chlorophenyl)thio)pyrazin-2-yl)-5,7-dihydrospiro[cyclo-penta[b]pyridine-6,4′-piperidin]-5-amine]: 81%; for `Nc1nc(N2CCC3(CC2)Cc2cccnc2C[C@H]3N)cnc1Sc1ccnc(N)c1Cl` [Example 9, (R)-1-(6-amino-5-((2-amino-3-chloropyridin-4-yl)thio)pyrazin-2-yl)-7,8′-dihydro-5′H-spiro [piperidine-4,6′-quinolin]-7′-amine]: 54%.
Consider `Nc1nc(N2CCC3(CC2)Cc2cnccc2C3N)cnc1Sc1ccnc(N)c1Cl` (stereo not drawn) [Example 127, 1′-(6-amino-5-((2-amino-3-chloropyridin-4-yl)thio)pyrazin-2-yl)-5,7-dihydrospiro [cyclopenta[c]pyridine-6,4′-piperidin]-5-amine], for which the inhibition at 0.1 µM was determined as 83%.
In the case of `CN1CCN(c2ccc3c(c2)[C@@H](N)C2(CCN(c4cnc(Sc5ccnc(N)c5Cl)c(N)n4)CC2)C3)CC1` [Example 75, (S)-1′-(6-amino-5-((2-amino-3-chloropyridin-4-yl)thio)pyrazin-2-yl)-6-(4-methylpiperazin-1-yl)-1,3-dihydrospiro [indene-2,4′-piperidin]-1-amine], the inhibition at 0.1 µM amounted to 16%.
`CC(=O)N1CC(F)(F)c2c(Sc3ncc(N4CCC5(CC4)Cc4ccccc4[C@H]5N)nc3N)cccc21` [Example 78, (S)-1-(4-((3-amino-5-(1-amino-1,3-dihydrospiro[indene-2,4′-piperidin]-1′-yl)pyrazin-2-yl)thio)-3,3-difluoroindolin-1-yl)ethan-1-one]: the inhibition at 0.1 µM stood at 67%.
To `Nc1nc(N2CCC3(CC2)Cc2ncccc2[C@H]3N)cnc1Sc1ccnc(F)c1Cl` [Example 116, (S)-1′-(6-amino-5-((3-chloro-2-fluoropyridin-4-yl)thio)pyrazin-2-yl)-5,7-dihydrospiro [cyclopenta[b]pyridine-6,4′-piperidin]-5-amine] belongs 79%; to `CCOP(=O)(OCC)c1ccc2c(c1)[C@@H](N)C1(CCN(c3cnc(Sc4ccnc(N)c4Cl)c(N)n3)CC1)C2` [Example 90, diethyl (S)-(1-amino-1′-(6-amino-5-((2-amino-3-chloropyridin-4-yl)thio)pyrazin-2-yl)-1,3-dihydrospiro [indene-2,4′-piperidin]-6-yl) phosphonate], 71%.
`CP(C)(=O)c1cc2c(cc1F)CC1(CCN(c3cnc(Sc4ccnc(N)c4Cl)c(N)n3)CC1)[C@@H]2N` [Example 41, (S)-(1-amino-1′-(6-amino-((2-amino-3-chloropyridin-4-yl)thio)pyrazin-2-yl)-5-fluoro-1,3-dihydrospiro[indene-2,4′-piperidin]-6-yl) dimethylphosphine oxide]: the inhibition at 0.1 µM is 69%.
Regarding `N=C1c2ccccc2CC12CCN(c1cnc(Sc3ccnc(N)c3Cl)c(N)n1)CC2` [Example 142, 3-((2-amino-3-chloropyridin-4-yl)thio)-6-(1-imino-1,3-dihydrospiro[indene-2,4′-piperidin]-1′-yl)pyrazin-2-amine], the inhibition at 0.1 µM came out at 17%.
In the case of `Nc1nc(N2CCC3(CC2)Cc2ccccc2/C3=N\O)cnc1Sc1ccnc(N)c1Cl` [Example 149, (Z)-1′-(6-amino-5-((2-amino-3-chloropyridin-4-yl)thio)pyrazin-2-yl) spiro[indene-2,4′-piperidin]-1(3H)-one oxime], the inhibition at 0.1 µM stood at 28%.
To `Nc1nc(N2CCC3(CC2)Cc2ccc(N4CCOCC4)cc2[C@H]3N)cnc1Sc1ccnc(N)c1Cl` [Example 60, (S)-1′-(6-amino-5-((2-amino-3-chloropyridin-4-yl)thio)pyrazin-2-yl)-6-morpholino-1,3-dihydro-spiro[indene-2,4′-piperidin]-1-amine] belongs 70%; to `C[S+]([O-])c1ccc2c(c1)[C@@H](N)C1(CCN(c3cnc(Sc4ccnc(N)c4Cl)c(N)n3)CC1)C2` (stereo partly drawn) [Example 25, (1S)-1′-(6-amino-5-((2-amino-3-chloropyridin-4-yl)thio)pyrazin-2-yl)-6-(methylsulfinyl)-1,3-dihydrospiro [indene-2,4′-piperidin]-1-amine], 72%.
The same measure for `Nc1nc(N2CCC3(CC2)Cc2c(O)cccc2[C@H]3N)cnc1Sc1ccnc(N)c1Cl` [Example 138, (S)-1-amino-1′-(6-amino-5-((2-amino-3-chloropyridin-4-yl)thio)pyrazin-2-yl)-1,3-dihydrospiro[indene-2,4′-piperidin]-4-ol]: 82%; for `Nc1nccc(Sc2cnc(N3CCC4(CC3)Cc3scnc3C4N)cn2)c1Cl` (stereo not drawn) [Example 154, 1′-(5-((2-amino-3-chloropyridin-4-yl)thio)pyrazin-2-yl)-4,6-dihydrospiro[cyclopenta[d]thiazole-5,4′-piperidin]-4-amine]: 82%.
Consider `N[C@@H]1c2cccnc2CC12CCN(c1cnc(Sc3c(Cl)cncc3Cl)cn1)CC2` [Example 110, (S)-1′-(5-((3,5-dichloropyridin-4-yl)thio)pyrazin-2-yl)-5,7-dihydrospiro [cyclopenta[b]pyridine-6,4′-piperidin]-5-amine], for which the inhibition at 0.1 µM stood at 61%.
`CN(C)c1nccc(Sc2cnc(N3CCC4(CC3)Cc3ccccc3[C@H]4N)cn2)c1Cl` [Example 49, (S)-1′-(5-((3-chloro-2-(dimethylamino)pyridin-4-yl)thio)pyrazin-2-yl)-1,3-dihydrospiro[indene-2,4′-piperidin]-1-amine]: the inhibition at 0.1 µM is 85%.
To `Nc1nc(N2CCC3(CC2)Cc2cc(F)c(F)c(F)c2[C@H]3N)cnc1Sc1ccnc(N)c1Cl` [Example 61, (S)-1′-(6-amino-5-((2-amino-3-choropyridin-4-yl)thio)pyrazin-2-yl)-5,6,7-trifluoro-1,3-dihydro-spiro[indene-2,4′-piperidin]-1-amine] belongs 74%; to `Nc1nccc(Sc2cnc(N3CCC4(CC3)Cc3ccccc3[C@H]4N)cn2)c1Cl` [Example 48, (S)-1′-(5-((2-amino-3-chloropyridin-4-yl)thio)pyrazin-2-yl)-1,3-dihydro-spiro[indene-2,4′-piperidin]-1-amine], 81%; to `CSc1ccc2c(c1)[C@@H](N)C1(CCN(c3cnc(Sc4ccnc(N)c4Cl)c(N)n3)CC1)C2` [Example 74, (S)-1′-(6-amino-5-((2-amino-3-chloropyridin-4-yl)thio)pyrazin-2-yl)-6-(methylthio)-1,3-dihydro-spiro[indene-2,4′-piperidin]-1-amine], 76%.
The same measure for `Nc1nc(N2CCC3(CC2)Cc2sc(Cl)nc2C3N)cnc1Sc1ccnc(N)c1Cl` (stereo not drawn) [Example 130, 1′-(6-amino-5-((2-amino-3-chloropyridin-4-yl)thio)pyrazin-2-yl)-2-chloro-4,6-dihydro-spiro[cyclopenta [d]thiazole-5,4′-piperidin]-4-amine]: 94%; for `N[C@@H]1c2cccnc2CC12CCN(c1cnc(Sc3cnccc3Cl)cn1)CC2` [Example 106, (S)-1′-(5-((4-chloropyridin-3-yl)thio)pyrazin-2-yl)-5,7-dihydrospiro [cyclopenta[b]pyridine-6,4′-piperidin]-5-amine]: 82%.
In the case of `Nc1nc(N2CCC3(CC2)Cc2ccccc2[C@H]3N)cnc1Sc1cccc2[nH]cc(F)c12` [Example 157, (S)-1′-(6-amino-5-((3-fluoro-1H-indol-4-yl)thio)pyrazin-2-yl)-1,3-dihydrospiro[indene-2,4′-piperidin]-1-amine], the inhibition at 0.1 µM came out at 78%.
To `Nc1nc(N2CCC3(CC2)Cn2c(cccc2=O)C3N)cnc1Sc1ccnc(N)c1Cl` (stereo not drawn) [Example 141, 1-amino-1′-(6-amino-5-((2-amino-3-chloropyridin-4-yl)thio)pyrazin-2-yl)-3H-spiro[indolizine-2,4′-piperidin]-5(1H)-one] belongs 41%.
As to `COc1ccc2c(c1)CC1(CCN(c3cnc(Sc4ccnc(N)c4Cl)c(N)n3)CC1)[C@@H]2N` [Example 11, (S)-1′-(6-amino-5-((2-amino-3-chloropyridin-4-yl)thio)pyrazin-2-yl)-5-methoxy-1,3-dihydrospiro [indene-2,4′-piperidin]-1-amine], the inhibition at 0.1 µM came to 74%.

(Values after patent US10988466B2, “Heterocyclic derivatives useful as SHP2 inhibitors” (Jacobio Pharmaceuticals Co., Ltd., priority 2017, dated 2021).)
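Also: compounds preincubated 30 min at room temperature in the assay mixture, activity referenced to a 0.5% (v/v) DMSO control taken as 100%, run in triplicate.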
